Measurements: patent US12060385B2, “Compounds for RNA capping and uses thereof” (GUANGZHOU HENOVCOM BIOSCIENCE CO., LTD., priority 2022, dated 2024)

These molecules were tested against T7 RNA Polymerase (Escherichia phage T7, UniProt P00573). Conditions: 20 μL transcription system, Cap1 Analog 4 mM, 37° C. 2 to 3 hours.
Type: biochemical
Description: • 1) A plasmid was linearized and the DNA template was purified. • 2) mRNA was synthesized in vitro with 51 types of capping structures of the present disclosure, or without any cap analogues. CleanCap®AG (3′OMe) (Trilink, N-7413) was applied as positive control group, uncapped mRNA was negative control group, and DNAase/RNase-Free water was a blank control group.
The system was incubated for 2 to 3 hours at 37° C. and digested by TURBO DNase for 15 min LiCl was used to precipitate mRNA for at least 30 min, or overnight, mRNA precipitates were then washed with 75% ethanol. After ethanol was quickly volatilized, mRNA was re-solubilized with RNase-Free water. • 3) The transcribed products were purified and the transcription yields were calculated.

Sequence of T7 RNA Polymerase (P00573 whole entry): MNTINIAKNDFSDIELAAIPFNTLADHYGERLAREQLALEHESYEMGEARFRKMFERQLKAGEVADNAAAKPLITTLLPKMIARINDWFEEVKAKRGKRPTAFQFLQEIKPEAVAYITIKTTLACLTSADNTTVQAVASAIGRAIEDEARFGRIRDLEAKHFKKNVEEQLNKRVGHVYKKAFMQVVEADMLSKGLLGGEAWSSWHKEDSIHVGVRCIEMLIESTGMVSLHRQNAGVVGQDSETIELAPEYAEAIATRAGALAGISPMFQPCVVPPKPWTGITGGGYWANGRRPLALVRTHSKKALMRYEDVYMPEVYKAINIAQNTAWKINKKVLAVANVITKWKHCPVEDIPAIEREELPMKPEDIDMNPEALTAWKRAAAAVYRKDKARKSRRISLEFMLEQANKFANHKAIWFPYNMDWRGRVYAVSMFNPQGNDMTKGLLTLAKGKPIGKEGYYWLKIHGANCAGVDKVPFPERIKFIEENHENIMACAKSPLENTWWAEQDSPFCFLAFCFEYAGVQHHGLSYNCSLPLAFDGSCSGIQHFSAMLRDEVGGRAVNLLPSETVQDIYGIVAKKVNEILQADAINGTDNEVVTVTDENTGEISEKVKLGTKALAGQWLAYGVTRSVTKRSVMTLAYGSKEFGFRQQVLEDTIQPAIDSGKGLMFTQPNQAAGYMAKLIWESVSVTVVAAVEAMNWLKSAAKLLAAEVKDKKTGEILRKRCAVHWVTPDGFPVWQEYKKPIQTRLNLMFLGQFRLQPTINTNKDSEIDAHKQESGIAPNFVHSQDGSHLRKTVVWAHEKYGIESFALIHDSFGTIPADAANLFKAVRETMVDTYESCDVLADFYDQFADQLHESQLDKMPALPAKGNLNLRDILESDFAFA

Compound | Final product mass obtained from the 20 μL of mRNA transcription system [µg]
COCC[C@H]1[C@@H](O)[C@H](n2c[n+](C)c3c(=O)[nH]c(N)nc32)O[C@@H]1COP(=O)(O)OP(=O)(O)OP(=O)(O)OC[C@H]1O[C@@H](n2cnc3c(N)ncnc32)[C@H](OC)[C@@H]1OP(=O)([O-])OC[C@H]1O[C@@H](n2cnc3c(=O)[nH]c(N)nc32)[C@H](O)[C@@H]1O [Compound 5] | 95
C=CCOC[C@H]1[C@@H](O)[C@H](n2c[n+](C)c3c(=O)[nH]c(N)nc32)O[C@@H]1COP(=O)(O)OP(=O)(O)OP(=O)(O)OC[C@H]1O[C@@H](n2cnc3c(N)ncnc32)[C@H](OC)[C@@H]1OP(=O)(O)OC[C@H]1O[C@@H](n2cnc3c(=O)[nH]c(N)nc32)[C@H](O)[C@@H]1O [Compound 33] | 103
C#CCOCC[C@H]1[C@@H](O)[C@H](n2c[n+](C)c3c(=O)[nH]c(N)nc32)O[C@@H]1COP(=O)(O)OP(=O)(O)OP(=O)(O)OC[C@H]1O[C@@H](n2cnc3c(N)ncnc32)[C@H](OC)[C@@H]1OP(=O)(O)OC[C@H]1O[C@@H](n2cnc3c(=O)[nH]c(N)nc32)[C@H](O)[C@@H]1O [Compound 51] | 114
COCCNC(=O)C[C@@H]1[C@@H](COP(=O)(O)OP(=O)(O)OP(=O)(O)OC[C@H]2O[C@@H](n3cnc4c(N)ncnc43)[C@H](OC)[C@@H]2OP(=O)([O-])OC[C@H]2O[C@@H](n3cnc4c(=O)[nH]c(N)nc43)[C@H](O)[C@@H]2O)OC(n2c[n+](C)c3c(=O)[nH]c(N)nc32)[C@@H]1O (stereo partly shown) [Compound 58] | 115
COC[C@H]1[C@@H](O)[C@H](n2c[n+](C)c3c(=O)[nH]c(N)nc32)O[C@@H]1COP(=O)(O)OP(=O)(O)OP(=O)(O)OC[C@H]1O[C@@H](n2cnc3c(N)ncnc32)[C@H](OC)[C@@H]1OP(=O)([O-])OC[C@H]1O[C@@H](n2ccc(=O)[nH]c2=O)[C@H](O)[C@@H]1O [Compound 110] | 106
CO[C@@H]1[C@H](OP(=O)([O-])OC[C@H]2O[C@@H](n3ccc(=O)[nH]c3=O)[C@H](O)[C@@H]2O)[C@@H](COP(=O)(O)OP(=O)(O)OP(=O)(O)OC[C@H]2OC(n3c[n+](C)c4c(=O)[nH]c(N)nc43)[C@H](O)[C@@H]2CNC(C)=O)O[C@H]1n1cnc2c(N)ncnc21 (stereo partly shown) [Compound 118] | 86
CO[C@@H]1[C@H](OP(=O)(O)OC[C@H]2O[C@@H](n3cnc4c(=O)[nH]c(N)nc43)[C@H](O)[C@@H]2O)[C@@H](COP(=O)(O)OP(=O)(O)OP(=O)(O)OC[C@H]2O[C@@H](n3c[n+](C)c4c(=O)[nH]c(N)nc43)[C@H](O)[C@@H]2CO)O[C@H]1n1cnc2c(N)ncnc21 [Compound 137] | 116
CCCCOC[C@H]1[C@@H](O)[C@H](n2c[n+](C)c3c(=O)[nH]c(N)nc32)O[C@@H]1COP(=O)(O)OP(=O)(O)OP(=O)(O)OC[C@H]1O[C@@H](n2cnc3c(N)ncnc32)[C@H](OC)[C@@H]1OP(=O)(O)OC[C@H]1O[C@@H](n2cnc3c(=O)[nH]c(N)nc32)[C@H](O)[C@@H]1O [Compound 151] | 110
CO[C@@H]1[C@H](OP(=O)([O-])OC[C@H]2O[C@@H](n3cnc4c(=O)[nH]c(N)nc43)[C@H](O)[C@@H]2O)[C@@H](COP(=O)(O)OP(=O)(O)OP(=O)(O)OC[C@H]2O[C@@H](n3c[n+](C)c4c(=O)[nH]c(N)nc43)[C@H](O)[C@@H]2CCO)O[C@H]1n1cnc2c(N)ncnc21 [Compound 153] | 65
CCCOCC[C@H]1[C@@H](O)[C@H](n2c[n+](C)c3c(=O)[nH]c(N)nc32)O[C@@H]1COP(=O)(O)OP(=O)(O)OP(=O)(O)OC[C@H]1O[C@@H](n2cnc3c(N)ncnc32)[C@H](OC)[C@@H]1OP(=O)(O)OC[C@H]1O[C@@H](n2cnc3c(=O)[nH]c(N)nc32)[C@H](O)[C@@H]1O [Compound 163] | 102
COC[C@H]1[C@@H](O)[C@H](n2c[n+](C)c3c(=O)[nH]c(N)nc32)O[C@@H]1COP(=O)(O)CP(=O)(O)OP(=O)(O)OC[C@H]1O[C@@H](n2cnc3c(N)ncnc32)[C@H](OC)[C@@H]1OP(=O)(O)OC[C@H]1O[C@@H](n2cnc3c(=O)[nH]c(N)nc32)[C@H](O)[C@@H]1O [Compound 171] | 105
COC[C@H]1[C@@H](O)[C@H](n2c[n+](C)c3c(=O)[nH]c(N)nc32)O[C@@H]1COP(=O)(O)OP(=O)(O)OP(=O)(O)OP(=O)(O)OC[C@H]1O[C@@H](n2cnc3c(N)ncnc32)[C@H](OC)[C@@H]1OP(=O)(O)OC[C@H]1O[C@@H](n2cnc3c(=O)[nH]c(N)nc32)[C@H](O)[C@@H]1O [Compound 189] | 92
COC[C@@H]1[C@@H](COP(=O)(O)OP(=O)([O-])OP(=O)([O-])OC[C@H]2O[C@@H](n3cnc4c(N)ncnc43)[C@H](OC)[C@@H]2NP(=O)(O)OC[C@H]2O[C@@H](n3cnc4c(=O)[nH]c(N)nc43)[C@H](O)[C@@H]2O)OC(n2c[n+](C)c3c(=O)[nH]c(N)nc32)[C@@H]1O.[Na+] (stereo partly shown) [Compound 195] | 69
CNc1ncnc2c1ncn2[C@@H]1O[C@H](COP(=O)(O)OP(=O)(O)OP(=O)(O)OC[C@H]2O[C@@H](n3c[n+](C)c4c(=O)[nH]c(N)nc43)[C@H](O)[C@@H]2COC)[C@@H](OP(=O)([O-])OC[C@H]2O[C@@H](n3cnc4c(=O)[nH]c(N)nc43)[C@H](O)[C@@H]2O)[C@H]1OC [Compound 197] | 121
COC[C@H]1[C@@H](O)[C@H](n2c[n+](C)c3c(=O)[nH]c(N)nc32)O[C@@H]1COP(=O)(O)OP(=O)(O)OP(=O)(O)OC[C@H]1O[C@@H](n2cnc3c(N)ncnc32)[C@H](OC)[C@@H]1OCOC[C@H]1O[C@@H](n2cnc3c(=O)[nH]c(N)nc32)[C@H](O)[C@@H]1O [Compound 199] | 95
CCO[C@@H]1[C@H](OP(=O)(O)OC[C@H]2O[C@@H](n3cnc4c(=O)[nH]c(N)nc43)[C@H](O)[C@@H]2O)[C@@H](COP(=O)(O)OP(=O)(O)OP(=O)(O)OCC2O[C@@H](n3c[n+](C)c4c(=O)[nH]c(N)nc43)[C@H](O)[C@@H]2COC)O[C@H]1n1cnc2c(N)ncnc21 (stereo partly shown) [Compound 203] | 96
COC[C@H]1[C@@H](O)[C@H](n2c[n+](Cc3ccccc3)c3c(=O)[nH]c(N)nc32)O[C@@H]1COP(=O)(O)OP(=O)(O)OP(=O)(O)OC[C@H]1O[C@@H](n2cnc3c(N)ncnc32)[C@H](OC)[C@@H]1OP(=O)([O-])OC[C@H]1O[C@@H](n2cnc3c(=O)[nH]c(N)nc32)[C@H](O)[C@@H]1O [Compound 215] | 95
COC[C@H]1[C@@H](O)[C@H](n2c[n+](C)c3c(=O)[nH]c(NC(C)C)nc32)O[C@@H]1COP(=O)(O)OP(=O)(O)OP(=O)(O)OC[C@H]1O[C@@H](n2cnc3c(N)ncnc32)[C@H](OC)[C@@H]1OP(=O)([O-])OC[C@H]1O[C@@H](n2cnc3c(=O)[nH]c(N)nc32)[C@H](O)[C@@H]1O [Compound 219] | 101
CO[C@@H]1[C@H](OP(=O)([O-])OC[C@H]2O[C@@H](n3cnc4c(=O)[nH]c(N)nc43)[C@H](O)[C@@H]2O)[C@@H](COP(=O)(O)OP(=O)(O)OP(=O)(O)OC[C@H]2O[C@@H](n3c[n+](C)c4c(=O)[nH]c(N)nc43)[C@H](O)[C@@H]2CNC=O)O[C@H]1n1cnc2c(N)ncnc21 [Compound 299] | 105
